{"source": "patent EP0291663A2", "about": "“Tert.-butyl amino-3-(phenyl-2'-phenoxy)-1-propanol-2 for the control of heart arrhythmia” (priority 1987, dated 1988)", "key": {"[1]": {"test": "in vivo", "conditions": "rat"}, "[2]": {"tested_on": "Meerschweinchen-Papillarmuskel", "test": "Contraction of isolated guinea pig papillary muscle (safety factor, negative inotropy)", "format": "cell-based", "conditions": "for Sf (Sicherheitsfaktor): Rate Factor von Vmax × (C20 CF/C20 Vmax)", "excerpt": "(§1) Überraschenderweise wurde gefunden, daß das tert.-Butylamino-3-(phenyl-2ʹ-phenoxy)-1-propanol 2 (\"Bipranol\") der Formel [drawing 1] und seine Salze mit Säuren keine β-sympatholytische Wirkung, sondern eine starke antiarrhythmische Wirkung besitzen. Die elektrophysiologischen und hämodynamischen Wirkungen wurden in vitro an zwei verschiedenen isolierten Herzpräparaten und in vivo (Hund) experimentell untersucht. In Tabelle I sind Ergebnisse pharmakologischer Untersuchungen mit Diprafenon, Propafenon und Bipranol zusammengefaßt.\n(§2) C20 Vmax: Konzentration, die Vmax bei einer Zykluslänge von 1000 mSek. um 20 % verringert. C20 CF: Konzentration, die die Kontraktion des Papillarmuskels um 20 % verringert. Rate Factor von Vmax: (% des Kontrollwertes Vmax bei einer Zykluslänge von 2000 mSek.)/(% des Kontrollwertes Vmax bei einer Zykluslänge von 500 mSek.) bei C20Vmax. C20APD95: Die Konzentration, die das APD95 des normalen Aktionspotentials um 20 % verlängert. Sf : Sicherheitsfaktor, errechnet als Rate Factor von Vmax × (C20 CF/C20 Vmax)."}, "[3]": {"tested_on": "Hunde-Purkinye Fasern", "test": "Electrophysiology on isolated dog Purkinje fibres (Vmax, action potential duration)", "format": "cell-based, Hund", "conditions": "for Rate Factor von Vmax: (% of control Vmax at cycle length 2000 mSek.)/(% of control Vmax at cycle length 500 mSek.) at C20Vmax", "excerpt": "as §1, §2\n(§3) In in vitro-Experimenten an isolierten Herzpräparaten lag die leistungsverzögernde und damit antiarrhythmische Wirkung (C20 Vmax) bei einer Dosis von 2,2 µMol Bipranol. Diese Dosierung entspricht einer antiarrhythmischen wirksamen Dosis von etwa 3 mg/kg bei in vivo Versuchen an Hunden. […] Diese Konzentration ist ungefähr 14 mal höher als für eine antiarrhythmische Wirkung gebraucht wird."}, "[4]": {"tested_on": "β-Rezeptor", "format": "in vivo, Hund", "excerpt": "Als Parameter zur Bestimmung der β-Rezeptor-blockierenden Wirkung am narkotisierten Hund dienten dP/dt als Maß für die Kontraktionskraft des Herzens, sowie cardiac output (Herzzeitvolumen). […] Im Gegensatz wirken β-Blocker immer negativ-inotrop. […] Die Beobachtungen bei dieser Dosis sind wahrscheinlich Folge einer nicht spezifischen toxischen Wirkung und beruhen nicht auf einer β-sympatolytischen Wirkung."}, "[5]": {"tested_on": "ventrikuläre Arrhythmien", "format": "in vivo, Hund", "conditions": "dog", "excerpt": "Dies wird auch durch in vivo Experimente bestätigt. Die antiarrhythmische Wirksamkeit der Verbindung wurde an Hunden nach H. Glücker et al., Arzneim.Forsch. (Drug Ros.) Bd. 35 (II), 9 (1985) S.1387-1393 geprüft. Die […] wurde mindestens 2 Stunden lang occludiert. Nach dem Auftreten konstanter […] die Verbindungen intravenös injiziert."}, "[6]": {"tested_on": "Meerschweinchen-Vorhofmuskel", "test": "Antagonism of the positive inotropic effect of adrenaline on isolated guinea pig atrial muscle", "format": "cell-based", "conditions": "highest test concentration 30 µMol", "protocol": "as §3"}, "[7]": {"conditions": "anaesthetised dog, up to 30 mg/kg"}, "[8]": {"conditions": "concentration that prolongs APD95 of the normal action potential by 20 %"}}, "note": "Where a name gives a salt, the structure may show the parent alone."}
{"smiles": "CC(C)(C)NCC(O)COc1ccccc1-c1ccccc1", "note": "(centres unmarked) [Bipranol HCl, tert.-Butylamino-3-(phenyl-2ʹ-phenoxy)-1-propanol-2]", "values": [{"measurement": "LD50", "setting": "[1]; Ratte (iv)", "value": 11, "unit": "mg/kg"}, {"measurement": "LD50", "setting": "[1]; Ratte (oral)", "value": 571, "unit": "mg/kg"}]}
{"smiles": "CC(C)(C)NCC(O)COc1ccccc1-c1ccccc1", "note": "(centres unmarked) [Bipranol, tert.-Butylamino-3-(phenyl-2ʹ-phenoxy)-1-propanol-2]", "values": [{"measurement": "negativ-inotrope Nebenwirkung", "setting": "[2]", "value": "keine nennenswerte negativ-inotrope Nebenwirkung"}, {"measurement": "Sf (Sicherheitsfaktor)", "setting": "[2]", "value": "9,09"}, {"measurement": "Rate Factor von Vmax", "setting": "[3]", "value": 5}, {"measurement": "IC20", "setting": "[3]; Canis lupus familiaris, purkinje, concentration that reduces Vmax by 20 % at cycle length 1000 mSek., isolated heart preparations, read-out: C20 Vmax", "value": 2.2, "unit": "µM"}, {"measurement": "EC20", "setting": "[3]; purkinje, concentration that prolongs APD95 of the normal action potential by 20 %, read-out: C20APD95", "value": 7.2, "unit": "µM"}, {"measurement": "cardiac output (Herzzeitvolumen)", "setting": "[4]; [7]", "value": "nicht beeinflußt"}, {"measurement": "dP/dt (Kontraktionskraft des Herzens)", "setting": "[4]; [7]", "value": "keine negativ-inotrope Wirkung"}, {"measurement": "Mortality", "setting": "[4]; in vivo, iv, 30 mg/kg", "value": "starben alle Hunde"}, {"measurement": "Reduktion der ventrikulären Extrazystolen", "setting": "[5]; i.v., 1,6 mg/kg followed by 50 µg/kg/min", "value": "> 90", "unit": "%"}, {"measurement": "Abschwächung der positiv-inotropen Wirkung von 1 µMol Adrenalin", "setting": "[6]", "value": "geringe Abschwächung"}]}
{"smiles": "CCC(C)(C)NCC(O)COc1ccccc1C(=O)CCc1ccccc1", "note": "(centres unmarked) [Diprafenon]", "values": [{"measurement": "negativ-inotrope Nebenwirkung", "setting": "[2]", "value": "deutlich negativer inotroper Effekt"}, {"measurement": "Sf (Sicherheitsfaktor)", "setting": "[2]", "value": "4,86"}, {"measurement": "Rate Factor von Vmax", "setting": "[3]", "value": "1,19"}, {"measurement": "C20APD95", "setting": "[3]; [8]", "value": "nicht erreicht"}]}
{"smiles": "O=C(NCC1CCCCN1)c1cc(OCC(F)(F)F)ccc1OCC(F)(F)F", "note": "(centres unmarked) [Flecainid, reference compound]", "values": [{"measurement": "therapeutische Dosierung", "setting": "[5]; i.v., followed by 50 µg/kg/min", "value": "2,4 mg/kg"}]}
{"smiles": "CCCNCC(O)COc1ccccc1C(=O)CCc1ccccc1", "note": "(centres unmarked) [Propafenon]", "values": [{"measurement": "Sf (Sicherheitsfaktor)", "setting": "[2]", "value": "1,55"}, {"measurement": "Rate Factor von Vmax", "setting": "[3]", "value": "1,08"}, {"measurement": "C20APD95", "setting": "[3]; [8]", "value": "nicht erreicht"}]}
